Entries after “also recorded” stand apart in the source; their conditions may differ. Where two headings read alike, the source gives them in different places. Bridge positions count the residues as written; N and C are the ends. Ends that are not written are not given here.

For assay [1], the target named is T1, hMC1R (Homo sapiens, UniProt Q01726). Particulars: human MC1R; HEK293 cells; cited from earlier work.
The subject of assay [2] is male Wistar rats. The conditions noted are these: 7 μg (1.2 nmol) ICV at the onset of a 24 h fast, vs vehicle; cited from earlier work.
For a further assay, the target named is mMC5R (Mus musculus, UniProt P41149). Kind of assay: cAMP AlphaScreen agonist assay, mMC5R. The conditions noted are these: mMC5R; up to 100 μM; HEK293 cells, cAMP. (In general: Bead proximity is the source of the signal in Alpha formats.)
Chain of mMC5R (P41149 whole entry): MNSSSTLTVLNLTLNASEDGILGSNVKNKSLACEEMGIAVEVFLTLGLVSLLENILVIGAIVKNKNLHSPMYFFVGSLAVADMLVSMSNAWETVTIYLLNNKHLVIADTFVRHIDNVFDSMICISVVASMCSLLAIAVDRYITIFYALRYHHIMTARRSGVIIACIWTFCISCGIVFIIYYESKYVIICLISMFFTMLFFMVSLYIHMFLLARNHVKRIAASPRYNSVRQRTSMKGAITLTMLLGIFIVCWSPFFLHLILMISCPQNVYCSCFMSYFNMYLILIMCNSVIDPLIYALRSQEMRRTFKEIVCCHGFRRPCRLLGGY
Assay [3] has as its target T1, hMC1R. The experiment in a line: cAMP AlphaScreen agonist assay, hMC1R. Particulars: hMC1R; up to 100 μM; HEK293 cells, cAMP.
Assay [4] deals with T1, hMC1R. The conditions noted are these: transiently transfected HEK293 cells, Eu-NDP-MSH, 2 h incubation; cited from earlier work.
The test system of assay [5] is male Wistar rats. Particulars: ad libitum; adult male Wistar rats; up to 2 nmol; cited from earlier work.
Assay [6] has as its system MC1R. The conditions noted are these: primary melanocytes, cited from earlier work.
The next assay has as its target mMC1R (Mus musculus, UniProt Q01727). Kind of assay: cAMP AlphaScreen agonist assay, mMC1R. The conditions noted are these: mMC1R; up to 100 μM; HEK293 cells, cAMP.
In assay [7] the target is T2, hMC4R (Homo sapiens, UniProt P32245). The conditions noted are these: transiently transfected HEK293 cells, Eu-NDP-MSH, 2 h incubation; cited from earlier work.
T2 sequence (P32245 whole entry): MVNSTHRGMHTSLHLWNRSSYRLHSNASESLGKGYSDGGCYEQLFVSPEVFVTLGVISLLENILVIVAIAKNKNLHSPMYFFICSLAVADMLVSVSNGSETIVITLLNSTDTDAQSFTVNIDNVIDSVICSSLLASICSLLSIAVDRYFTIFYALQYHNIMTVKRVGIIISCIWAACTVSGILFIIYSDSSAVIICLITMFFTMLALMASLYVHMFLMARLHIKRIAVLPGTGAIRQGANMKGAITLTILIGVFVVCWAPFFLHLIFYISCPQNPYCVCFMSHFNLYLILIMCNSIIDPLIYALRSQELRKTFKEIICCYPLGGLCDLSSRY
The test system of assay [8] is MC1R. The conditions noted are these: cited from earlier work.
Assay [9] addresses T2, hMC4R. Kind of assay: cAMP AlphaScreen agonist assay, hMC4R. The conditions noted are these: hMC4R; up to 100 μM; HEK293 cells, cAMP.
For assay [10], the system named is MC1R. Particulars: B16 cells, cited from earlier work.
The target of assay [11] is T2, hMC4R. The experiment in a line: Competitive displacement binding, [125I]-NDP-MSH, hMC4R. Particulars: 100 μM, stably expressing HEK293 cells, 1 h incubation.

T1 sequence (Q01726 whole entry): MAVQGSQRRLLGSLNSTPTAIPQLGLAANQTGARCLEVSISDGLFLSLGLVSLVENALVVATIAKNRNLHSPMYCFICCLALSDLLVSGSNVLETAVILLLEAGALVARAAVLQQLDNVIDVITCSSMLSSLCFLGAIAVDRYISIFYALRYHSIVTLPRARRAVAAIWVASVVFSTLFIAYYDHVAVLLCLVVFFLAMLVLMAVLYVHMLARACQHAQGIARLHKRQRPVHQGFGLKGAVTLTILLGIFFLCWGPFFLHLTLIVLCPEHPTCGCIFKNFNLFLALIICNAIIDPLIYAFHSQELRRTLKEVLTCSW
Chain of mMC1R (Q01727 whole entry): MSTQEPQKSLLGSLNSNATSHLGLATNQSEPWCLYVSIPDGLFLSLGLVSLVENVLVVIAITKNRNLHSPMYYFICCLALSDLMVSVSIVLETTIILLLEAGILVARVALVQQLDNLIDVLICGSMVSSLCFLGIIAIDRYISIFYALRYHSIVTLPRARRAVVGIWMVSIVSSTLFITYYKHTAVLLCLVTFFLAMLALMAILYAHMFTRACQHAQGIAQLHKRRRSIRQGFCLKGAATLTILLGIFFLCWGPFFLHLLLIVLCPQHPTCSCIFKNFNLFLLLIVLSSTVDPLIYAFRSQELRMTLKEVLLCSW

As to “GIINTLQKYYCRVRGGRCAVLSCLPKEEQIGKCSTRGRKCCRRKK (disulfide 11-40, 18-33, 23-41) [hBD3]”, the results for the Binding affinity at hMC1R [1], on hMC1R [4] and on hMC4R [7] were 13.8 nM, 42 nM and 110 nM, respectively. The Body weight result with male Wistar rats [2] is on record as “decreased weight gain; also recorded: slower return to pre-fast weight”. For the same sequence, the Food intake entry with male Wistar rats [2] was “decrease food intake; also recorded: significant decreases in food intake; also recorded: consumed less food”. Also, the “Agonist efficacy (in words)” value on mMC5R, at hMC1R [3], at mMC1R and on hMC4R [9] was “Full agonist activity” throughout. Moreover, the “Food intake or body weight change” value in the assay with male Wistar rats [5] is listed as “does not result in a statistical change in food intake or body weight change”. The “Effect on α-MSH induction of cAMP” value in the assay on MC1R [6] (100 nM) was “lower the agonist induction of cAMP”. The cAMP signal entry in the assay with MC1R [6] (up to 100 nM) and in the assay on MC1R [10] (up to 100 nM) was “no cAMP signal” throughout. Moreover, the “Effect on NDP-MSH induction of cAMP” value in the assay on MC1R [8] (HEK293 cells expressing the MC1R, 100 nM) was “lower the agonist induction of cAMP”; with MC1R [10] (100 nM), “lower the agonist induction of cAMP”. In addition, in the assay with MC1R [8] (HEK293 cells expressing the MC1R, 300 nM), the “cAMP response vs maximal response of 1 nM NDP-MSH” value was “lower than the maximal response of 1 nM NDP-MSH”. In addition, the cAMP levels entry in the assay on MC1R [8] (HEK293 cells, 100 and 300 nM) was “dose dependent increase in cAMP levels”. Moreover, the “Displacement of radiolabeled NDP-MSH at 100 μM” value on hMC4R [11] is listed as 50%.
